Measurements: patent US20230085307A1, “PYRIDAZINONE COMPOUND AND HERBICIDE” (NISSAN CHEMICAL CORPORATION, priority 2019, published 2023)

Experiments:
barnyard grass [1] = assay: Test Example 3: herbicidal effect by foliage application, Wagner pot (Table 18, symbol H); assay type: in vivo, barnyard grass (Echinochloa crus-galli)
Method in brief: (§1)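 Plants were sown in alluvial soil held under 0.1–0.5 cm standing water and grown 14 days in a greenhouse at 25–30 °C. An emulsifiable formulation, water-diluted to the set dose, was then sprayed onto the foliage, and effects were scored three weeks later using previously defined criteria.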

Chinese sprangletop = assay: Test Example 3: herbicidal effect by foliage application, Wagner pot (Table 18, symbol D); assay type: in vivo, chinese sprangletop (Leptochloa chinensis)
Method in brief: as §1

rice flat sedge = assay: Test Example 3: herbicidal effect by foliage application, Wagner pot (Table 18, symbol E); assay type: in vivo, rice flat sedge (Cyperus iria)
Method in brief: as §1

southern crabgrass [2] = assay: Test Example 4: herbicidal effect by soil treatment (Table 19, symbol F); assay type: in vivo, southern crabgrass (Digitaria ciliaris)
Method in brief: (§2)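 Seeds were sown in sterilized diluvial soil and covered with about 1.5 cm of soil. An emulsion formulation diluted with water to a predetermined herbicide amount was sprayed evenly onto the soil surface. Plants grew in a greenhouse at 25° C. to 30° C., and the effect was scored three weeks after application using criteria from an earlier test.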

green foxtail [3] = assay: Test Example 4: herbicidal effect by soil treatment (Table 19, symbol G); assay type: in vivo, green foxtail (Setaria viridis)
Method in brief: as §2

barnyard grass [4] = assay: Test Example 4: herbicidal effect by soil treatment (Table 19, symbol H); assay type: in vivo, barnyard grass (Echinochloa crus-galli)
Method in brief: as §2

wild oat [5] = assay: Test Example 4: herbicidal effect by soil treatment (Table 19, symbol I); assay type: in vivo, wild oat (Avena fatua)
Method in brief: as §2

blackgrass [6] = assay: Test Example 4: herbicidal effect by soil treatment (Table 19, symbol J); assay type: in vivo, blackgrass (Alopecurus myosuroides)
Method in brief: as §2

Italian ryegrass [7] = assay: Test Example 4: herbicidal effect by soil treatment (Table 19, symbol K); assay type: in vivo, Italian ryegrass (Lolium multiflorum)
Method in brief: as §2

windgrass [8] = assay: Test Example 4: herbicidal effect by soil treatment (Table 19, symbol L); assay type: in vivo, windgrass (Apera spica-venti)
Method in brief: as §2

velvetleaf [9] = assay: Test Example 4: herbicidal effect by soil treatment (Table 19, symbol M); assay type: in vivo, velvetleaf (Abutilon theophrasti)
Method in brief: as §2

redroot pigweed [10] = assay: Test Example 4: herbicidal effect by soil treatment (Table 19, symbol N); assay type: in vivo, redroot pigweed (Amaranthus retroflexus)
Method in brief: as §2

lambsquarters [11] = assay: Test Example 4: herbicidal effect by soil treatment (Table 19, symbol O); assay type: in vivo, lambsquarters (Chenopodium album)
Method in brief: as §2

false cleavers = assay: Test Example 4: herbicidal effect by soil treatment (Table 19, symbol Q); assay type: in vivo, false cleavers (Galium spurium)
Source text: [Test Example 4] Herbicidal Effect Test by Soil Treatment
Sterilized diluvial soil was placed in a plastic box having a length of 21 cm, a width of 13 cm, and a depth of 7 cm. The seeds of each of southern crabgrass, green foxtail, barnyard grass, wild oat, blackgrass, Italian ryegrass, windgrass, velvetleaf, redroot pigweed, lambsquarters, chickweed, false cleavers, persian speedwell, corn, soybean, rice, wheat, beet, and rapeseed were sowed in a spot-like manner and covered with the soil having a thickness of about 1.5 cm. Subsequently, the emulsion agent of the compound of the present invention prepared according to Formulation Example 2 was diluted with water so as to achieve a predetermined herbicide amount, and the diluted emulsion agent was uniformly applied to the surface of the soil with a small-sized spray. The plastic box was placed in a greenhouse at 25° C. to 30° C. for growth of the plants. Three weeks after the herbicide application, the effect of the herbicide on each plant was evaluated according to the criteria of Test Example 1.

southern crabgrass [12] = assay: Test Example 5: herbicidal effect by foliage application, plastic box (Table 20, symbol F); assay type: in vivo, southern crabgrass (Digitaria ciliaris); details: evaluated three weeks after application
Method in brief: (§3)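 Plants sown in sterilized diluvial soil and grown 14 days in a greenhouse at 25° C to 30° C, then sprayed on the foliage with the compound's emulsion diluted in water to a predetermined herbicide amount. Injury to weeds and crops scored three weeks after application on a visual rating scale.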

green foxtail [13] = assay: Test Example 5: herbicidal effect by foliage application, plastic box (Table 20, symbol G); assay type: in vivo, green foxtail (Setaria viridis); details: evaluated three weeks after application
Method in brief: as §3

barnyard grass [14] = assay: Test Example 5: herbicidal effect by foliage application, plastic box (Table 20, symbol H); assay type: in vivo, barnyard grass (Echinochloa crus-galli); details: evaluated three weeks after application
Method in brief: as §3

wild oat [15] = assay: Test Example 5: herbicidal effect by foliage application, plastic box (Table 20, symbol I); assay type: in vivo, wild oat (Avena fatua); details: evaluated three weeks after application
Method in brief: as §3

blackgrass [16] = assay: Test Example 5: herbicidal effect by foliage application, plastic box (Table 20, symbol J); assay type: in vivo, blackgrass (Alopecurus myosuroides); details: evaluated three weeks after application
Method in brief: as §3

Italian ryegrass [17] = assay: Test Example 5: herbicidal effect by foliage application, plastic box (Table 20, symbol K); assay type: in vivo, Italian ryegrass (Lolium multiflorum); details: evaluated three weeks after application
Method in brief: as §3

windgrass [18] = assay: Test Example 5: herbicidal effect by foliage application, plastic box (Table 20, symbol L); assay type: in vivo, windgrass (Apera spica-venti); details: evaluated three weeks after application
Method in brief: as §3

velvetleaf [19] = assay: Test Example 5: herbicidal effect by foliage application, plastic box (Table 20, symbol M); assay type: in vivo, velvetleaf (Abutilon theophrasti); details: evaluated three weeks after application
Method in brief: as §3

redroot pigweed [20] = assay: Test Example 5: herbicidal effect by foliage application, plastic box (Table 20, symbol N); assay type: in vivo, redroot pigweed (Amaranthus retroflexus); details: evaluated three weeks after application
Method in brief: as §3

lambsquarters [21] = assay: Test Example 5: herbicidal effect by foliage application, plastic box (Table 20, symbol O); assay type: in vivo, lambsquarters (Chenopodium album); details: evaluated three weeks after application
Method in brief: as §3

chickweed = assay: Test Example 5: herbicidal effect by foliage application, plastic box (Table 20, symbol P); assay type: in vivo, common chickweed (Stellaria media); details: evaluated three weeks after application
Method in brief: as §3

persian speedwell = assay: Test Example 5: herbicidal effect by foliage application, plastic box (Table 20, symbol R); assay type: in vivo, Persian speedwell (Veronica persica); details: evaluated three weeks after application
Method in brief: as §3

[22] = amount of applied herbicide 310 g/ha
[23] = foliage application, AAH 310 g/ha
[24] = amount of applied herbicide 320 g/ha
[25] = 320 g/ha, foliage application after 14-day growth

Q: Which “herbicidal effect on H: barnyard grass” value (barnyard grass [1]; [22]) does the source give for `Cc1nn(C)c(=O)c(-c2c(-c3ccc(OC(F)F)cc3)sc3ccc(F)cc23)c1OC(=S)Oc1ccccc1` [2-297] here?
A: The value was 5 (Herbicidal rate of 90% or more (almost completely withered)).

Q: And the “herbicidal effect on D: Chinese sprangletop” value (Chinese sprangletop; [22])?
A: The value was 0 (Herbicidal rate of 5% or less (almost no effect)).

Q: And the “herbicidal effect on E: rice flat sedge” value (rice flat sedge; [22])?
A: The value was 5 (Herbicidal rate of 90% or more (almost completely withered)).

Q: And the “herbicidal effect on F: southern crabgrass” value (southern crabgrass [2]; [22])?
A: The value was 3 (Herbicidal rate of 40% or more and less than 70%).

Q: What about the “herbicidal effect on G: green foxtail” value (green foxtail [3]; [22]) of the same compound?
A: The value was 4 (Herbicidal rate of 70% or more and less than 90%).

Q: What about the “herbicidal effect on H: barnyard grass” value (barnyard grass [4]; [22]) of the same compound?
A: The value was 4 (Herbicidal rate of 70% or more and less than 90%).

Q: And the “herbicidal effect on I: wild oat” value (wild oat [5]; [22])?
A: The value was 0 (Herbicidal rate of 5% or less (almost no effect)).

Q: What about the “herbicidal effect on J: blackgrass” value (blackgrass [6]; [22]) of the same compound?
A: Its value is 3 (Herbicidal rate of 40% or more and less than 70%).

Q: And the “herbicidal effect on K: Italian ryegrass” value (Italian ryegrass [7]; [22])?
A: The value was 5 (Herbicidal rate of 90% or more (almost completely withered)).

Q: What about the “herbicidal effect on L: windgrass” value (windgrass [8]; [22]) of the same compound?
A: The value was 0 (Herbicidal rate of 5% or less (almost no effect)).

Q: And the “herbicidal effect on M: velvetleaf” value (velvetleaf [9]; [22])?
A: Its value is 5 (Herbicidal rate of 90% or more (almost completely withered)).

Q: What about the “herbicidal effect on N: redroot pigweed” value (redroot pigweed [10]; [22]) of the same compound?
A: Its value is 5 (Herbicidal rate of 90% or more (almost completely withered)).

Q: And the “herbicidal effect on O: lambsquarters” value (lambsquarters [11]; [22])?
A: Its value is 5 (Herbicidal rate of 90% or more (almost completely withered)).

Q: And the “herbicidal effect on Q: false cleavers” value (false cleavers; [22])?
A: The value was 0 (Herbicidal rate of 5% or less (almost no effect)).

Q: And the “F: southern crabgrass, herbicidal effect (criteria 0-5)” value (southern crabgrass [12]; [23])?
A: Its value is 1 (Herbicidal rate of 5% or more and less than 20%).

Q: And the “G: green foxtail, herbicidal effect (criteria 0-5)” value (green foxtail [13]; [23])?
A: Its value is 5 (Herbicidal rate of 90% or more (almost completely withered)).

Q: And the “H: barnyard grass, herbicidal effect (criteria 0-5)” value (barnyard grass [14]; [23])?
A: The value was 5 (Herbicidal rate of 90% or more (almost completely withered)).

Q: What about the “I: wild oat, herbicidal effect (criteria 0-5)” value (wild oat [15]; [23]) of the same compound?
A: The value was 2 (Herbicidal rate of 20% or more and less than 40%).

Q: And the “J: blackgrass, herbicidal effect (criteria 0-5)” value (blackgrass [16]; [23])?
A: The value was 3 (Herbicidal rate of 40% or more and less than 70%).

Q: What about the “K: Italian ryegrass, herbicidal effect (criteria 0-5)” value (Italian ryegrass [17]; [23]) of the same compound?
A: The value was 5 (Herbicidal rate of 90% or more (almost completely withered)).

Q: And the “L: windgrass, herbicidal effect (criteria 0-5)” value (windgrass [18]; [23])?
A: The value was 0 (Herbicidal rate of 5% or less (almost no effect)).

Q: What about the “M: velvetleaf, herbicidal effect (criteria 0-5)” value (velvetleaf [19]; [23]) of the same compound?
A: The value was 5 (Herbicidal rate of 90% or more (almost completely withered)).

Q: And the “N: redroot pigweed, herbicidal effect (criteria 0-5)” value (redroot pigweed [20]; [23])?
A: Its value is 5 (Herbicidal rate of 90% or more (almost completely withered)).

Q: What about the “O: lambsquarters, herbicidal effect (criteria 0-5)” value (lambsquarters [21]; [23]) of the same compound?
A: The value was 5 (Herbicidal rate of 90% or more (almost completely withered)).

Q: What about the “P: chickweed, herbicidal effect (criteria 0-5)” value (chickweed; [23]) of the same compound?
A: Its value is 5 (Herbicidal rate of 90% or more (almost completely withered)).

Q: And the “R: persian speedwell, herbicidal effect (criteria 0-5)” value (persian speedwell; [23])?
A: Its value is 5 (Herbicidal rate of 90% or more (almost completely withered)).

Q: Which results are given for `Cc1nn(C)c(=O)c(-c2c(-c3ccc(Cl)cc3)sc3c(Cl)cccc23)c1O` [4-017]?
A: herbicidal effect on barnyard grass (H) (barnyard grass [1]; 320 g/ha): 4 (Herbicidal rate of 70% or more and less than 90%); herbicidal effect on Chinese sprangletop (D) (Chinese sprangletop; 320 g/ha): 0 (Herbicidal rate of 5% or less (almost no effect)); herbicidal effect on rice flat sedge (E) (rice flat sedge; 320 g/ha): 3 (Herbicidal rate of 40% or more and less than 70%); Herbicidal effect by soil treatment, F: southern crabgrass (southern crabgrass [2]; [24]): 0 (Herbicidal rate of 5% or less (almost no effect)); Herbicidal effect by soil treatment, G: green foxtail (green foxtail [3]; [24]): 0 (Herbicidal rate of 5% or less (almost no effect)); Herbicidal effect by soil treatment, H: barnyard grass (barnyard grass [4]; [24]): 0 (Herbicidal rate of 5% or less (almost no effect)); Herbicidal effect by soil treatment, I: wild oat (wild oat [5]; [24]): 0 (Herbicidal rate of 5% or less (almost no effect)); Herbicidal effect by soil treatment, J: blackgrass (blackgrass [6]; [24]): 0 (Herbicidal rate of 5% or less (almost no effect)); Herbicidal effect by soil treatment, K: Italian ryegrass (Italian ryegrass [7]; [24]): 0 (Herbicidal rate of 5% or less (almost no effect)); Herbicidal effect by soil treatment, L: windgrass (windgrass [8]; [24]): 2 (Herbicidal rate of 20% or more and less than 40%); Herbicidal effect by soil treatment, M: velvetleaf (velvetleaf [9]; [24]): 0 (Herbicidal rate of 5% or less (almost no effect)); Herbicidal effect by soil treatment, N: redroot pigweed (redroot pigweed [10]; [24]): 0 (Herbicidal rate of 5% or less (almost no effect)); Herbicidal effect by soil treatment, O: lambsquarters (lambsquarters [11]; [24]): 0 (Herbicidal rate of 5% or less (almost no effect)); Herbicidal effect by soil treatment, Q: false cleavers (false cleavers; [24]): 0 (Herbicidal rate of 5% or less (almost no effect)); herbicidal effect on F: southern crabgrass (evaluation grade 0-5) (southern crabgrass [12]; [25]): 0 (Herbicidal rate of 5% or less (almost no effect)); herbicidal effect on G: green foxtail (evaluation grade 0-5) (green foxtail [13]; [25]): 0 (Herbicidal rate of 5% or less (almost no effect)); herbicidal effect on H: barnyard grass (evaluation grade 0-5) (barnyard grass [14]; [25]): 0 (Herbicidal rate of 5% or less (almost no effect)); herbicidal effect on I: wild oat (evaluation grade 0-5) (wild oat [15]; [25]): 3 (Herbicidal rate of 40% or more and less than 70%); herbicidal effect on J: blackgrass (evaluation grade 0-5) (blackgrass [16]; [25]): 3 (Herbicidal rate of 40% or more and less than 70%); herbicidal effect on K: Italian ryegrass (evaluation grade 0-5) (Italian ryegrass [17]; [25]): 1 (Herbicidal rate of 5% or more and less than 20%); herbicidal effect on L: windgrass (evaluation grade 0-5) (windgrass [18]; [25]): 4 (Herbicidal rate of 70% or more and less than 90%); herbicidal effect on M: velvetleaf (evaluation grade 0-5) (velvetleaf [19]; [25]): 4 (Herbicidal rate of 70% or more and less than 90%); herbicidal effect on N: redroot pigweed (evaluation grade 0-5) (redroot pigweed [20]; [25]): 5 (Herbicidal rate of 90% or more (almost completely withered)); herbicidal effect on O: lambsquarters (evaluation grade 0-5) (lambsquarters [21]; [25]): 2 (Herbicidal rate of 20% or more and less than 40%); herbicidal effect on P: chickweed (evaluation grade 0-5) (chickweed; [25]): 5 (Herbicidal rate of 90% or more (almost completely withered)); herbicidal effect on R: persian speedwell (evaluation grade 0-5) (persian speedwell; [25]): 4 (Herbicidal rate of 70% or more and less than 90%)
